Species on record: Rattus norvegicus
Assay: Open TG-GATES - Regimen: Single
Format: toxicity, organism-based, Sprague-Dawley
Set-up: regimen Single, gender Male, age 6 weeks
Conditions: in vivo, po, route gavage; for APTT / Bas / Eos / Fbg / Hb / Ht / Lym / MCHC / MCV / Mono / Neu / PT / Plat / RBC / Ret / WBC: tissue Blood; for KIDNEY_L / KIDNEY_R / KIDNEY_TOTAL: tissue Kidney; for LIVER: tissue Liver; for ALP / ALT / AST / BUN / CRE / Ca / Cl / DBIL / GLC / IP / K / LDH / Na / PL / RALB / TBIL / TC / TG / TP / gamma-GTP: tissue Plasma
[1] = 0 mg/kg, 3 h, dose level Control
[2] = 0 mg/kg, 6 h, dose level Control
[3] = 0 mg/kg, 9 h, dose level Control
[4] = 0 mg/kg, 24 h, dose level Control

CN(C)C(=N)N=C(N)N [METFORMIN]
TERMINAL_BW [1]: 200.9 g | APTT [1]: 16.9 s | Bas [1]: 0% | Eos [1]: 0.6% | Fbg [1]: 245.6 mg/dL | Hb [1]: 13.1 g/dL | Ht [1]: 39.6% | Lym [1]: 76.8% | MCHC [1]: 33% | MCV [1]: 65.3 fL | Mono [1]: 3.4% | Neu [1]: 18.4% | PT [1]: 12.3 s | Plat [1]: 111.6 x10_4/uL | RBC [1]: 606.6 x10_4/ul | Ret [1]: 10.1% | WBC [1]: 96.1 x10_2/uL | KIDNEY_L [1]: 0.9 g | KIDNEY_R [1]: 0.9 g | KIDNEY_TOTAL [1]: 1.8 g | LIVER [1]: 8.5 g | ALP [1]: 1612 IU/L | ALT [1]: 43.6 IU/L | AST [1]: 74.2 IU/L | BUN [1]: 9.2 mg/dL | CRE [1]: 0.2 mg/dL | Ca [1]: 11.1 mg/dL | Cl [1]: 104 meq/L | DBIL [1]: 0.016 mg/dL | GLC [1]: 179.8 mg/dL | IP [1]: 9.2 mg/dL | K [1]: 4.2 meq/L | LDH [1]: 58.2 IU/L | Na [1]: 140 meq/L | PL [1]: 136.6 mg/dL | RALB [1]: 2.5 g/dL | TBIL [1]: 0.052 mg/dL | TC [1]: 87 mg/dL | TG [1]: 42.2 mg/dL | TP [1]: 5.2 g/dL | gamma-GTP [1]: 1.4 IU/L | TERMINAL_BW [2]: 202.6 g | APTT [2]: 16.1 s | Bas [2]: 0% | Eos [2]: 0.8% | Fbg [2]: 261 mg/dL | Hb [2]: 12.9 g/dL | Ht [2]: 38.9% | Lym [2]: 77.2% | MCV [2]: 62.9 fL | Mono [2]: 3% | Neu [2]: 18.4% | PT [2]: 12.2 s | Plat [2]: 113.4 x10_4/uL | RBC [2]: 618.4 x10_4/ul | Ret [2]: 9.2% | WBC [2]: 92.1 x10_2/uL | KIDNEY_L [2]: 0.9 g | KIDNEY_R [2]: 0.9 g | KIDNEY_TOTAL [2]: 1.8 g | LIVER [2]: 8 g | ALP [2]: 1285 IU/L | ALT [2]: 44.8 IU/L | AST [2]: 78.8 IU/L | BUN [2]: 7.6 mg/dL | CRE [2]: 0.1 mg/dL | Ca [2]: 10.7 mg/dL | Cl [2]: 104.8 meq/L | DBIL [2]: 0.006 mg/dL | GLC [2]: 161 mg/dL | IP [2]: 9.9 mg/dL | K [2]: 4.1 meq/L | LDH [2]: 64 IU/L | Na [2]: 139.4 meq/L | PL [2]: 121 mg/dL | RALB [2]: 2.4 g/dL | TBIL [2]: 0.046 mg/dL | TG [2]: 27.2 mg/dL | TP [2]: 5 g/dL | gamma-GTP [2]: 1 IU/L | TERMINAL_BW [3]: 201 g | APTT [3]: 16 s | Bas [3]: 0% | Eos [3]: 1% | Fbg [3]: 244.8 mg/dL | Hb [3]: 12.4 g/dL | Lym [3]: 73.8% | MCV [3]: 64.5 fL | Mono [3]: 3.2% | Neu [3]: 21.4% | PT [3]: 12.2 s | Plat [3]: 107.6 x10_4/uL | RBC [3]: 577.8 x10_4/ul | Ret [3]: 10% | WBC [3]: 75.6 x10_2/uL | KIDNEY_L [3]: 0.9 g | KIDNEY_R [3]: 0.9 g | KIDNEY_TOTAL [3]: 1.7 g | LIVER [3]: 7.7 g | ALP [3]: 1175 IU/L | ALT [3]: 41.6 IU/L | AST [3]: 69.6 IU/L | BUN [3]: 9 mg/dL | CRE [3]: 0.1 mg/dL | Ca [3]: 10.6 mg/dL | Cl [3]: 105 meq/L | DBIL [3]: 0.008 mg/dL | GLC [3]: 164.8 mg/dL | IP [3]: 10.5 mg/dL | K [3]: 4 meq/L | LDH [3]: 49 IU/L | Na [3]: 141 meq/L | PL [3]: 136.4 mg/dL | RALB [3]: 2.5 g/dL | TBIL [3]: 0.042 mg/dL | TC [3]: 87 mg/dL | TG [3]: 35.6 mg/dL | TP [3]: 5.1 g/dL | gamma-GTP [3]: 1 IU/L | TERMINAL_BW [4]: 207.9 g | APTT [4]: 16.4 s | Bas [4]: 0% | Eos [4]: 1% | Fbg [4]: 230.4 mg/dL | Hb [4]: 13 g/dL | Ht [4]: 38.7% | Lym [4]: 77% | MCHC [4]: 33.5% | Mono [4]: 3.8% | Neu [4]: 17.8% | PT [4]: 12.5 s | Plat [4]: 115 x10_4/uL | RBC [4]: 595.2 x10_4/ul | Ret [4]: 8.9% | WBC [4]: 101.4 x10_2/uL | KIDNEY_L [4]: 0.9 g | KIDNEY_R [4]: 0.9 g | KIDNEY_TOTAL [4]: 1.8 g | LIVER [4]: 10 g | ALP [4]: 1728.6 IU/L | ALT [4]: 49.8 IU/L | AST [4]: 78.2 IU/L | BUN [4]: 16 mg/dL | CRE [4]: 0.2 mg/dL | Ca [4]: 11.4 mg/dL | Cl [4]: 103.8 meq/L | DBIL [4]: 0.012 mg/dL | GLC [4]: 173 mg/dL | IP [4]: 8.6 mg/dL | K [4]: 3.9 meq/L | LDH [4]: 63.6 IU/L | Na [4]: 141.2 meq/L | PL [4]: 139 mg/dL | RALB [4]: 2.6 g/dL | TBIL [4]: 0.038 mg/dL | TG [4]: 89.6 mg/dL | TP [4]: 5.5 g/dL | gamma-GTP [4]: 1 IU/L | TERMINAL_BW (100 mg/kg, 3 h, dose level Low): 201 g
